Compared with `COc1cc(CC(=O)N2C3CCCCC3C[C@H]2COc2ccc(C(=O)O)cc2)ccc1NC(=O)Nc1ccccc1Br` (stereo partly drawn) [Compound 167, 4-[1-[4-[N′-(2-bromophenyl)ureido]-3-methoxyphenylacetyl]-(2S)-octahydroindolylmethoxy]benzoic acid], `COc1cc(CC(=O)N2C[C@H](OC)C[C@H]2COc2ccc(C(=O)O)cc2)ccc1NC(=O)Nc1ccccc1Br` [Compound 138, 4-[1-[4-[N′-(2-bromophenyl)ureido]-3-methoxyphenylacetyl]-(4R)-methoxy-(2S)-pyrrolidinylmethoxy]benzoic acid] is higher in melting point: 118 to 123 °C for the first, 125 to 130 °C for the second.

First: COc1cc(CC(=O)N[C@@H](C)COc2ccc(C(=O)O)cc2Cl)ccc1NC(=O)Nc1ccccc1C [Compound 275, (S)-3-chloro-4-[2-[3-methoxy-4-[N′-(2-methylphenyl)ureido]phenylacetylamino]-1-propoxy]benzoic acid]
Second: COc1cc(CC(=O)NCCOc2ccc(C(=O)O)cc2OC)ccc1NC(=O)Nc1ccccc1C [Compound 255, 3-methoxy-4-[2-[3-methoxy-4-[N′-(2-methylphenyl)ureido]phenylacetyl]aminoethoxy]benzoic acid]
The melting point of the first is higher: 198 to 201 °C for the first, 180 to 181 °C for the second.

First: COc1cc(CC(=O)N(Cc2ccccc2)[C@@H](C)COc2ccc(C(=O)O)cc2Cl)ccc1NC(=O)Nc1ccccc1F [Compound 287, (S)-3-chloro-4-[2-[N-benzyl-N-[3-methoxy-4-[N′-(2-fluorophenyl)ureido]phenylacetyl]amino]-1-propoxy]benzoic acid]
Second: COc1cc(CC(=O)N(C)CCNc2ccc(C(=O)O)cc2)ccc1NC(=O)Nc1ccccc1C [Compound 282, 4-[[2-[3-methoxy-4-[N′-(2-methylphenyl)ureido]phenylacetyl]methylamino]ethylamino]benzoic acid]
The melting point of the first is higher: 125 to 130 °C for the first, 115 to 120 °C for the second.

First: COc1cc(CC(=O)N2CCN(c3ccc(C(=O)O)cc3)CC2)ccc1NC(=O)Nc1ccccc1C [Compound 259]
Second: COc1cc(CC(=O)N2CC[C@@H](Oc3ccc(C(=O)O)cc3)C2)ccc1NC(=O)Nc1ccccc1C [Compound 185, 4-[1-[3-methoxy-4-[N′-(2-methylphenyl)ureido]phenylacetyl]-(3R)-pyrrolidinyloxy]benzoic acid]
The melting point of the first is higher: 240 to 245 °C for the first, 158 to 162 °C for the second.

Compared with `COc1cc(CC(=O)N2C[C@@H](Oc3ccc(C(=O)O)cc3)C[C@H]2COc2ccc(C(=O)O)cc2)ccc1NC(=O)Nc1ccccc1Cl` [Compound 117, 4-[(4S)-(4-carboxyphenoxy)-1-[4-[N′-(2-chlorophenyl)uriedo]-3-methoxyphenylacetyl]-(2S)-pyrrolidinylmethoxy]benzoic acid], `COc1cc(CC(=O)N2C[C@H](O)C[C@H]2COc2ccc(C(=O)O)cc2)ccc1NC(=O)Nc1ccccc1C` [Compound 110, 4-[(4R)-hydroxy-1-[3-methoxy-4-[N′-(2-methylphenyl)ureido]phenylacetyl]-(2S)-pyrrolidinylmethoxy]benzoic acid] is higher in melting point: 150 to 153 °C for the first, 178 to 182 °C for the second.

`Cc1ccccc1NC(=O)Nc1ccc(CC(=O)N2CCC[C@H]2COC2CCC(C(=O)O)CC2)cc1` (stereo partly drawn) [Compound 177, 4-[[1-[4-[N′-(2-methylphenyl)ureido]phenylacetyl]-(2S)-pyrrolidinyl]methoxy]cyclohexane carboxylic acid] and `Cc1ccccc1NC(=O)Nc1ccc(CC(=O)N(C)CCOc2ccc(C(=O)O)cc2N(C)C)cc1` [Compound 278] cannot be ordered by melting point: 107 to 111 °C for the first, 110 to 115 °C for the second.

`COc1cc(CC(=O)N2CC[C@@H](Oc3ccc(C(=O)O)cc3)C2)ccc1NC(=O)Nc1ccccc1Cl` [Compound 186, 4-[1-[4-[N′-(2-chlorophenyl)ureido]-3-methoxyphenylacetyl]-(3R)-pyrrolidinyloxy]benzoic acid] gave a melting point of 193 to 194 °C.

For `COc1cc(CC(=O)N2CCCC2C#Cc2ccc(C(=O)O)cc2)ccc1NC(=O)Nc1ccccc1F` (centres unmarked) [Compound 33, 4-[2-[1-[4-[N′-(2-fluorophenyl)ureido)-3-methoxyphenylacetyl]-2-pyrrolidinyl]ethynyl]benzoic acid], the melting point was 152 to 155 °C (dec.).
